The values below come from patent US10450593B2, “Type II fatty acid synthesis enzymes in reverse β-oxidation” (William Marsh Rice University, priority 2014, dated 2019).

Where two headings read alike, the source gives them in different places.

Data set [1] concerns the target T1, FabI (Escherichia coli, UniProt P0AEK4).
T1 sequence (P0AEK4 1-262): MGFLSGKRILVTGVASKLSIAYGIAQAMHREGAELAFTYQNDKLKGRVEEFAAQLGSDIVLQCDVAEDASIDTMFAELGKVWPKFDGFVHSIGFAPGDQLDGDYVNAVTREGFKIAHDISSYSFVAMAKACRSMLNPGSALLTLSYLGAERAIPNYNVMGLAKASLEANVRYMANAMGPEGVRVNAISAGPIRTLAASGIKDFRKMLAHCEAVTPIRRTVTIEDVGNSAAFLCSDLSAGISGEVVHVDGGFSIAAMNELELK
The data set can be described thus: Inhibition of FabI crotonyl-CoA reduction activity by CoA thioesters. Type of data set: biochemical, E. coli. To be noted: for inhibitory effect on FabI activity: CoA thioester at 20 or 200 μM. The source says: FIG. 3. Characterization of crotonyl-CoA reduction to butyryl-CoA by FabI. FIG. 3A. Mass spectrum analysis of FabI reduction of crotonyl-CoA to butyryl-CoA. (i) Controls of crotonyl-CoA (836.3 m/z—gray) and butyryl-CoA (838.3 m/z—black). (ii) Reaction mixture without FabI. (iii) Reaction mixture with FabI. FIG. 3B. pH activity profile of FabI with crotonyl-CoA and NADH relative to pH 7.5 (1.0). FIG. 3C. Inhibition profile of crotonyl-CoA reduction activity for FabI with the indicated CoA thioesters at either 20 or 200 μM relative to activity in absence of inhibitor (100%).
(§1) For measurement of enzymatic activities from fermentation samples, cells were disrupted as previously reported (Dellomonaco, Clomburg, Miller, & Gonzalez, 2011). The HIS Tagged FabI protein was expressed from pCA24N-FabI from the ASKA collection (Kitagawa et al., 2005) in BL21(DE3) cells (NEW ENGLAND BIOLABS™) induced at OD600≈0.4 with 0.1 mM IPTG and shaken O/N at Room Temperature. FabI protein was harvested and purified as previously reported using Talon Metal Affinity Resin (CLONTECH LABORATORIES™) (Clomburg et al., 2012).
(§2) Thiolase activity (Wiesenborn, Rudolph, & Papoutsakis, 1988) and β-hydroxybutyryl-CoA dehydrogenase activity (Bond-Watts, Bellerose, & Chang, 2011a) were monitored accordingly as previously described (Clomburg et al., 2012). Trans-enoyl-CoA reductase activity for egTER, FabI, bsFabL, efFabK and vcFabV were monitored by loss of NADH (Bond-Watts et al., 2011a; Clomburg et al., 2012). Acyl-CoA dehydrogenase activity was monitored by measuring the reduction of Methyl-Thiazolyl Blue (MTT) coupled to the oxidation of butyryl-CoA (O'Brien & Frerman, 1977) in cellular extracts disrupted as above with the addition of 5 μM flavin adenine dinucleotide (FAD).
To understand the potential of utilizing FabI for BOX-R, we examined the effect of key CoA thioester intermediates of the BOX-R as well as a broad range of acyl-CoAs on FabI activity […].

Data set [2] deals with T1, FabI. Conditions: substrate of FabI, Bergler 1994; cited from earlier work.
The target of data set [3] is T1, FabI.
Substrate in data set [4]: C/C=C/C(=O)SCCNC(=O)CCNC(=O)[C@H](O)C(C)(C)COP(=O)(O)OP(=O)(O)OC[C@H]1O[C@@H](n2cnc3c(N)ncnc32)[C@H](O)[C@@H]1OP(=O)(O)O
Nature of the data set: Kinetic parameters of purified N-terminal His-tagged FabI with crotonyl-CoA and NADH. The data set is classed as biochemical, E. coli. Conditions: other: substrate of purified FabI, NADH. On the procedure: as §1, §2
N-terminal His-tagged FabI was purified from an ASKA collection vector (Kitagawa et al., 2005) expressed in the strain BL21(DE3). […] This change in kcat increases the expected rate of crotonyl-CoA reduction by FabI to a value between 1.02×10^−7M s^−1 and 7.86×10^−11 M s^−1, which is in agreement with the rate observed in our cultures. To verify that FabI is utilizing NADH to convert crotonyl-CoA to butyryl-CoA, the reaction was monitored via HPLC-MS, which confirmed that FabI converts crotonyl-CoA almost completely to butyryl-CoA (FIG. 3a).

Regarding `CCCCCCCCCCCCCC(=O)SCCNC(=O)CCNC(=O)[C@H](O)C(C)(C)COP(=O)(O)OP(=O)(O)OC[C@H]1O[C@@H](n2cnc3c(N)ncnc32)[C@H](O)[C@@H]1OP(=O)(O)O` [myristoyl-CoA], in data set [1] (CoA thioester at 200 μM), the “percent inhibition of FabI crotonyl-CoA reduction activity” value was “highest percent inhibition”.

In the case of `CC(=O)CC(=O)SCCNC(=O)CCNC(=O)[C@H](O)C(C)(C)COP(=O)(O)OP(=O)(O)OC[C@H]1O[C@@H](n2cnc3c(N)ncnc32)[C@H](O)[C@@H]1OP(=O)(O)O` [acetoacetyl-CoA], the “inhibitory effect on FabI activity” value in data set [1] is “minimal inhibitory effects”.

As for `C/C=C/C(=O)SCCNC(=O)CCNC(=O)[C@H](O)C(C)(C)COP(=O)(O)OP(=O)(O)OC[C@H]1O[C@@H](n2cnc3c(N)ncnc32)[C@H](O)[C@@H]1OP(=O)(O)O` [crotonyl-CoA], the reported kcat in data set [2] is 0.23 s⁻¹.

As to `CC(O)CC(=O)SCCNC(=O)CCNC(=O)[C@H](O)C(C)(C)COP(=O)(O)OP(=O)(O)OC[C@H]1O[C@@H](n2cnc3c(N)ncnc32)[C@H](O)[C@@H]1OP(=O)(O)O` (stereo partly shown) [3-hydroxy-butyryl-CoA], in data set [1], the “inhibitory effect on FabI activity” value was “minimal inhibitory effects”.

For the molecule `CCCCCCCCCC(=O)SCCNC(=O)CCNC(=O)C(O)C(C)(C)COP(=O)(O)OP(=O)(O)OC[C@H]1O[C@@H](n2cnc3c(N)ncnc32)[C@H](O)[C@@H]1OP(=O)(O)O` (stereo partly shown) [decaonyl-CoA], in data set [3] (literature, Helmut Bergler 1996; read-out: Ki towards FabI; cited from earlier work), the inhibition constant (Ki) was approximately 900 µM.

Regarding `CCCCCCCCCCCCCCCC(=O)SCCNC(=O)CCNC(=O)[C@H](O)C(C)(C)COP(=O)(O)OP(=O)(O)OC[C@H]1O[C@@H](n2cnc3c(N)ncnc32)[C@H](O)[C@@H]1OP(=O)(O)O` [palmitoyl-CoA], the inhibition at 20 µM in data set [1] (read-out: inhibition of FabI crotonyl-CoA reduction activity) is approximately 50%. In data set [3] (read-out: Ki towards FabI; literature, Helmut Bergler 1996; cited from earlier work), the Ki is 20 µM.

B1: FabI (Escherichia coli K-12) (protein)
chain: MGFLSGKRILVTGVASKLSIAYGIAQAMHREGAELAFTYQNDKLKGRVEEFAAQLGSDIVLQCDVAEDASIDTMFAELGKVWPKFDGFVHSIGFAPGDQLDGDYVNAVTREGFKIAHDISSYSFVAMAKACRSMLNPGSALLTLSYLGAERAIPNYNVMGLAKASLEANVRYMANAMGPEGVRVNAISAGPIRTLAASGIKDFRKMLAHCEAVTPIRRTVTIEDVGNSAAFLCSDLSAGISGEVVHVDGGFSIAAMNELELK
As to B1, in data set [4], the Km is 4.6 ± 0.6 mM, the kcat was 5.3 ± 0.6 s⁻¹ and the specificity constant (kcat/Km) came out at 1150 M⁻¹ s⁻¹.
